Source: patent US7314959B2, “Amino thiol compounds and compositions for use in conjunction with cancer therapy” (Wisconsin Alumni Research Foundation, priority 2003, dated 2008)

Key:
[1] = test system: A431 human epidermoid cells (xenograft in nude mice); experiment: Effect of topical drug on killing of tumor xenograft by external beam γ irradiation; assay type: in vivo, mouse; settings: topical dose 5-times higher than standard regimen, adjacent to xenograft; 6.2 Gy
Protocol: Briefly, athymic nude mice (nu/nu, 6-7 weeks, Harlan Labs) were housed in cages containing autoclaved bedding and received autoclaved food and water. Cages were maintained in a sterile laminar flow hood. Mice received a single, sc injection of tumor cells (6.5×10^6, A431; 2.5×10^6, L1210) suspended in 200 ul of serum-free DMEM.
After three days, mice were treated with topical drug in vehicle or vehicle alone. PrC-210 was formulated in a 50:30:20 vehicle (ethanol:PG (propylene glycol):water, adjusted to pH 6.5 with NaOH), and mice received four topical applications over two hours (at −2 hr, −1 hr, −30 min and −10 min, irradiation was at 0 min). 18-20 gm nude mice received topical treatments of 13 ul, 11 ul, 11 ul and 11 ul (total=46 ul) applied to a roughly 1 cm×1.5 cm area on the right flank, which was adjacent to the tumor xenograft. For these tumor xenograft experiments, a 5-fold increase in drug concentration over the minimum effective concentration previously shown to prevent radiodermatitis was tested.
With the last topical drug application, at −10 min, the mice also received an ip injection of Nembutal (65 ug/gm b.w.). […]
Growth of the xenograft tumors was monitored by vernier caliper measurements every 1-2 days for the 18-21 days following irradiation. […]

[2] = test system: radiation-induced dermatitis on backs of rats; experiment: Radiation-induced dermatitis in rat skin model; assay type: in vivo
Protocol: To determine efficacy of chemoprotective polyamines in preventing radiation-induced dermatitis, adult rats were topically treated with the compounds before and after radiation treatment. Rats were exposed to medically relevant levels of radiation that could induce clinical radiation dermatitis. Sprague Dawley rats (Harlan Spraque Dawley) at 4-6 weeks-old were anesthetized with sodium pentobarbital at 40 mg/kg body weight (Sigma, St. Louis, Mo.) prior to radiation exposure. A defined area (1.5×2 cm) on the backs of rats was irradiated using a Mark I, Model 30, Cs 137 irradiator (J. L. Sheppard & Associates). Before topical drug treatment or irradiation, the backs of the rats were clipped using an Oster clipper at the closest setting. The rest of the body was protected from radiation exposure using a lead shield (2.5 cm thick). A dose response study was initially performed to reproduce relevant dermatitis that matched the Grade (I-IV) scale used to score the severity of radiation-induced dermatitis in humans. The severity of the dermatitis was scored 12-13 days post-irradiation at the peak of the dermal inflammation. […] Radiation dermatitis of Grade II-III was considered most clinically relevant, so a radiation dose of 8.7 Gy was typically used in the rats. The clipped back region on the rats was treated topically with aminothiol in delivery vehicle four times in the two hours immediately preceding irradiation (at −2 hr, −1 hr, −30 min, and −10 min; irradiation was at 0 min
The polyamines or amino thiols were prepared in a delivery vehicle, consisting of ethanol:propylene glycol:water, ranging from 0:95:5 to 50:30:20 depending upon the solubility characteristics of the topical molecule, and the degree of dermal penetration desired. A vehicle composed of an emulsion formed by sonication of ‘nonionic liposomes’ and isopropyl myristate was also used (Jayaraman, S. et al., J. Pharm. Sci. 85:1082-1084, 1996). In a commonly used protocol, 220 μl of topical drug/vehicle was applied to an area ˜2 cm×3 cm on the back in the 2 hr just prior to irradiation. Rats treated with only the delivery vehicle served as controls. Twelve to thirteen days post-radiation, the rats were evaluated for dermatitis within the irradiated area. In early studies, a modified scoring scale described by Masuda K. et al., Int. J. Radiation Oncol. Biol. Phys: 12, 1645 (1986) was used, and in later studies, including those described here, a simplified scoring system was used in which the percentage of the irradiated, rectangular field covered with scrab material was estimated between 0 and 100% to provide scores on a scale between 0 and 100.
This example relates to the use of a rat skin model to evaluate the efficacy of two amino thiol compounds in preventing radiation-induced dermatitis. To test whether topically-applied aminothiols could prevent the radiodermatitis caused by external beam radiotherapy, the rodent model described in Example 3 was slightly modified. Briefly, the radiodermatitis model involved: • i) shaving the backs of 6-7 week old rats or mice; • ii) applying four topical doses of aminothiol in a delivery vehicle composed of ethanol:propylene glycol (PG):water in the 2 hr prior to irradiation; • iii) irradiating a small, 3 cm^2 (1.5×2 cm) area on the animal's back (through a window in a lead plate) with 8.7 Gy of γ radiation from a Cs^137 source; and • iv) scoring the severity of the dermatitis 12-13 days later, at the peak of the inflammatory skin reaction. Radiodermatitis severity was scored by estimating the percentage of the irradiated field that was covered by scrab material.
Methods: Treatments were applied as described in Example 6.

SMILES: CNCC(CS)CNC [PrC-210, 3-methylamino-2-methylaminomethyl-propane-1-thiol]
- effect upon killing of tumor cells by external beam γ irradiation [1]: no discernible effect
- dose for complete protection in 0:95:5 vehicle relative to 50:30:20 vehicle ([2]; 0:95:5 versus 50:30:20 ethanol:PG:water): about 10 times
- Dermatitis Score (% of irradiated field free of scab material) ([2]; 370 mM, vehicle 0:95:5, Experiment 440-443): <50%
- Dermatitis Score (% of irradiated field free of scab material) ([2]; 370 mM, vehicle 50:30:20, Experiment 574-577): 100 ± 0%
- Dermatitis Score (% of irradiated field free of scab material) ([2]; 370 mM, vehicle 50:30:20, Experiment 643-646): 98 ± 3%
- Dermatitis Score (% of irradiated field free of scab material) ([2]; 740 mM, vehicle 0:95:5 ethanol:prop. glycol:water, Experiment 440-443): 68%
- Dermatitis Score (% of irradiated field free of scab material) ([2]; 740 mM, vehicle 50:30:20, Experiment 626-629): 96 ± 3%
- Dermatitis Score (% of irradiated field free of scab material) ([2]; 740 mM, vehicle 50:30:20, Experiment 643-646): 96 ± 4%
- Dermatitis Score (% of irradiated field free of scab material) ([2]; 900 mM PrC-210, vehicle 0:95:5, cage 440, 8.7 Gy): 68 ± 10%
- Dermatitis Score (% of irradiated field free of scab material) ([2]; 1200 mM PrC-210, vehicle 0:95:5, cage 441): 95 ± 5%
- concentration conferring complete protection against radiation-induced dermatitis ([2]; 95:5 PG:water vehicle): 1200 to 1500 mM
- concentration of topical aminothiol alone conferring complete protection against radiodermatitis ([2]; aminothiol alone, without epinephrine, 8.7 Gy): ~1200 mM
- dose required for complete protection (100% Clear Skin) against radiodermatitis ([2]; vehicle 0:95:5 ethanol:PG:water): ~24 mg/cm skin
- applied dose conferring complete protection against radiation-induced dermatitis ([2]; vehicle 50:30:20 ethanol:PG:water): 2.8 mg/cm^2 skin
- concentration conferring complete protection against radiation-induced dermatitis ([2]; vehicle 50:30:20 ethanol:PG:water, total applied volume 105 ul): 370 mM
